In experiment [1] the test system is Rattus norvegicus. The experiment in a line: Antidyslipidemic activity in triton-induced hyperlipidemic Charles Foster rat assessed as reduction in phospholipid in plasma at 100 mg/kg, po relative to control. The arrangement: scale not given: the % may be the effect or the level left. In kind it is functional.
Experiment [2] deals with Rattus norvegicus. As to the kind of experiment: Antidyslipidemic activity in triton-induced hyperlipidemic Charles Foster rat assessed as increase in total lipolytic activity of lipoprotein lipase at 100 mg/kg, po relative to control. In kind it is functional, organism-based. The arrangement: dose 100 mg/kg.
Experiment [3] in a line: Antioxidant activity assessed as suppression of microsomal lipid peroxidation measured as MDA formation at 200 ug/ml after 90 mins by spectrophotometry relative to control. In kind it is functional.
For experiment [4], the system named is Rattus norvegicus. The experiment in a line: Antidyslipidemic activity in triton-induced hyperlipidemic po dosed Charles Foster rat assessed as reduction in VLDL in plasma relative to control. In kind it is functional, organism-based.
For experiment [5], the system named is Rattus norvegicus. The experiment in a line: Antidyslipidemic activity in triton-induced hyperlipidemic Charles Foster rat assessed as reduction in triglyceride in plasma at 100 mg/kg, po relative to control. The arrangement: scale not given: the % may be the effect or the level left. In kind it is functional.
Experiment [6] is described as follows: Antioxidant activity assessed as hydroxyl ion scavenging activity measured as MDA formation at 200 ug/ml after 90 mins by spectrophotometry relative to control. In kind it is functional.
Experiment [7] relates to Rattus norvegicus. As to the kind of experiment: Antidyslipidemic activity in triton-induced hyperlipidemic Charles Foster rat assessed as reduction in total cholesterol in plasma at 100 mg/kg, po relative to control. In kind it is functional. The arrangement: scale not given: the % may be the effect or the level left.
Experiment [8] has as its system Rattus norvegicus. As to the kind of experiment: Antidyslipidemic activity in triton-induced hyperlipidemic Charles Foster rat assessed as plasma post heparin lipolytic activity at 100 mg/kg, po relative to control. In kind it is functional.
A short description of experiment [9]: Antioxidant activity assessed as superoxide ion scavenging activity measured as formazone formation at 200 ug/ml after 90 mins by spectrophotometry relative to control. In kind it is functional.
Experiment [10] deals with Rattus norvegicus. As to the kind of experiment: Antidyslipidemic activity in triton-induced hyperlipidemic Charles Foster rat assessed as reduction in total cholesterol in plasma at 50 to 150 mg/kg, po relative to control. In kind it is functional. The arrangement: scale not given: the % may be the effect or the level left. The conditions noted are these: dose mg/kg 50-150.

Experiment [11] relates to Rattus norvegicus. As to the kind of experiment: Antidyslipidemic activity in triton-induced hyperlipidemic Charles Foster rat assessed as reduction in triglyceride in plasma at 50 to 150 mg/kg, po relative to control. In kind it is functional. Further details: scale not given: the % may be the effect or the level left. Particulars: dose mg/kg 50-150.
For experiment [12], the system named is Rattus norvegicus. The experiment in a line: Antidyslipidemic activity in triton-induced hyperlipidemic po dosed Charles Foster rat assessed as increase in HDL in plasma relative to control. In kind it is functional, organism-based.
Experiment [13] concerns Rattus norvegicus. The experiment in a line: Antidyslipidemic activity in triton-induced hyperlipidemic po dosed Charles Foster rat assessed as reduction in LDL in plasma relative to control. In kind it is functional, organism-based.
Experiment [14] deals with Rattus norvegicus. As to the kind of experiment: Antidyslipidemic activity in triton-induced hyperlipidemic Charles Foster rat assessed as reduction in phospholipid in plasma at 50 to 150 mg/kg, po relative to control. Further details: scale not given: the % may be the effect or the level left. In kind it is functional. Particulars: dose mg/kg 50-150.

Drawing on ChEMBL document CHEMBL3259778, “Design and synthesis of novel indole-chalcone fibrates as lipid lowering agents” (2014), this text covers Activity for 22 molecules.

Structures are written as SMILES. Active and inactive are the calls of the source. The rule behind the calls is not given here.

For the molecule `CCOC(=O)C(C)(C)Oc1ccc(C(=O)/C=C/c2c(C)[nH]c3ccccc23)cc1`, the Activity in the experiment with Rattus norvegicus [1] was 33%; in experiment [3] it was 40%; with Rattus norvegicus [5] it was 30%; in experiment [6], 41%; in the experiment on Rattus norvegicus [7], 32%; in the experiment with Rattus norvegicus [8], 20%. Besides, the Activity in experiment [9] was 36%; with Rattus norvegicus [10], 24%; with Rattus norvegicus [11] it was 25%; in the experiment with Rattus norvegicus [14] it was 26%. The result with Rattus norvegicus [2], in the experiment on Rattus norvegicus [4], in the experiment with Rattus norvegicus [12] and in the experiment with Rattus norvegicus [13] was Active.

On to `Oc1ncnc2[nH]ncc12`, for which, in experiment [9], the Activity is 49%.

Take `OC[C@@H](O)[C@@H](O)[C@H](O)[C@H](O)CO`: the Activity in [6] was found to be 53%.

As to `CCOC(=O)CCCOc1ccc(C(=O)/C=C/c2c[nH]c3ccccc23)cc1`, the Activity in the experiment with Rattus norvegicus [1] turned out to be 32%; in experiment [3], 35%; with Rattus norvegicus [5], 30%; in experiment [6], 37%; with Rattus norvegicus [7], 31%; with Rattus norvegicus [8] it was 19%. Moreover, the Activity is 31% in experiment [9], 22% with Rattus norvegicus [10], 20% in the experiment on Rattus norvegicus [11] and 20% in the experiment with Rattus norvegicus [14]. Moreover, the outcome in the experiment on Rattus norvegicus [2], with Rattus norvegicus [4], with Rattus norvegicus [12] and in the experiment on Rattus norvegicus [13] was Active.

As to `COC(=O)CCCOc1ccc(C(=O)/C=C/c2c[nH]c3ccc(Cl)cc23)cc1`, the Activity in the experiment with Rattus norvegicus [1] is reported as 11%; in the experiment on Rattus norvegicus [5] it was 10%; in the experiment on Rattus norvegicus [7] it was 10%; in the experiment with Rattus norvegicus [8], 4%.

Take `CCOC(=O)C(C)Oc1ccc(C(=O)/C=C/c2c[nH]c3ccccc23)cc1` (stereo unspecified): the Activity in the experiment with Rattus norvegicus [1] is reported as 13%; with Rattus norvegicus [5], 12%; in the experiment with Rattus norvegicus [7], 15%; in the experiment on Rattus norvegicus [8], 8%.

Regarding `Cc1c(C)c2c(c(C)c1O)CC[C@@](C)(CCC[C@H](C)CCC[C@H](C)CCCC(C)C)O2`, in experiment [3], the Activity is 46%.

Regarding `CC(C)OC(=O)C(C)(C)Oc1ccc(C(=O)c2ccc(Cl)cc2)cc1` [FENOFIBRATE], the Activity with Rattus norvegicus [1] stood at 30%; with Rattus norvegicus [5], 33%; with Rattus norvegicus [7], 32%; with Rattus norvegicus [8] it was 19%. Moreover, the result with Rattus norvegicus [2] was Active.

Consider `CCC(Oc1ccc(C(=O)/C=C/c2c(C)[nH]c3ccccc23)cc1)C(=O)OC` (stereo unspecified), for which the Activity in the experiment on Rattus norvegicus [1] worked out at 24%; in experiment [3] it was 28%; with Rattus norvegicus [5], 27%; in experiment [6], 29%; with Rattus norvegicus [7], 26%; with Rattus norvegicus [8] it was 16%. In addition, the Activity in experiment [9] amounted to 27%; in the experiment on Rattus norvegicus [10], 14%; in the experiment on Rattus norvegicus [11], 15%; in the experiment with Rattus norvegicus [14], 17%. For the same molecule, the outcome in the experiment on Rattus norvegicus [2], in the experiment with Rattus norvegicus [4], in the experiment with Rattus norvegicus [12] and with Rattus norvegicus [13] was Active.

Consider `CCOC(=O)C(C)Oc1ccc(C(=O)/C=C/c2c[nH]c3ccc(OC)cc23)cc1` (stereo unspecified), for which the Activity with Rattus norvegicus [1] turned out to be 13%; in the experiment with Rattus norvegicus [5], 10%; in the experiment on Rattus norvegicus [7] it was 11%; with Rattus norvegicus [8], 6%.

`COC(=O)CCCOc1ccc(C(=O)/C=C/c2c[nH]c3ccccc23)cc1`: the Activity with Rattus norvegicus [1] turned out to be 22%; in experiment [3] it was 30%; in the experiment with Rattus norvegicus [5], 22%; in experiment [6], 32%; in the experiment on Rattus norvegicus [7], 20%; in the experiment with Rattus norvegicus [8] it was 14%. The Activity in [9] was found to be 26%.

As for `COC(=O)CCCOc1ccc(C(=O)/C=C/c2c[nH]c3ccc(OC)cc23)cc1`, the Activity in the experiment with Rattus norvegicus [1] is on record as 11%; in the experiment with Rattus norvegicus [5], 14%; with Rattus norvegicus [7], 13%; in the experiment on Rattus norvegicus [8], 7%.

On to `CCOC(=O)C(C)Oc1ccc(C(=O)/C=C/c2c[nH]c3ccc(Cl)cc23)cc1` (stereo unspecified), for which the Activity amounted to 15% with Rattus norvegicus [1], 13% with Rattus norvegicus [5], 11% in the experiment on Rattus norvegicus [7] and 7% with Rattus norvegicus [8].

In the case of `CCOC(=O)C(CC)Oc1ccc(C(=O)/C=C/c2c[nH]c3ccc(Cl)cc23)cc1` (stereo unspecified), the Activity in the experiment on Rattus norvegicus [1] was 16%; with Rattus norvegicus [5], 16%; with Rattus norvegicus [7] it was 18%; in the experiment on Rattus norvegicus [8], 13%.

Consider `CCC(Oc1ccc(C(=O)/C=C/c2c[nH]c3ccccc23)cc1)C(=O)OC` (stereo unspecified), for which the Activity is given as 8% with Rattus norvegicus [1], 9% in the experiment on Rattus norvegicus [5], 8% in the experiment with Rattus norvegicus [7] and 3% with Rattus norvegicus [8].

Regarding `COC(=O)C(C)Oc1ccc(C(=O)/C=C/c2c[nH]c3ccc(Cl)cc23)cc1` (stereo unspecified), the Activity in the experiment on Rattus norvegicus [1] is reported as 14%; in the experiment with Rattus norvegicus [5], 17%; in the experiment with Rattus norvegicus [7] it was 12%; with Rattus norvegicus [8], 3%.

As to `CCOC(=O)CCCOc1ccc(C(=O)/C=C/c2c(C)[nH]c3ccccc23)cc1`, the Activity stood at 16% in the experiment on Rattus norvegicus [1], 14% in the experiment with Rattus norvegicus [5], 13% with Rattus norvegicus [7] and 7% in the experiment on Rattus norvegicus [8].

Turning to `COC(=O)C(C)(C)Oc1ccc(C(=O)/C=C/c2c(C)[nH]c3ccccc23)cc1`, the Activity in the experiment with Rattus norvegicus [1] is listed as 12%; in the experiment with Rattus norvegicus [5] it was 10%; in the experiment on Rattus norvegicus [7], 10%; with Rattus norvegicus [8], 6%.

For the molecule `CCOC(=O)C(C)(C)Oc1ccc(C(=O)/C=C/c2c[nH]c3ccccc23)cc1`, the Activity in the experiment on Rattus norvegicus [1] was 22%; in experiment [3] it was 36%; in the experiment on Rattus norvegicus [5], 22%; in experiment [6], 38%; in the experiment on Rattus norvegicus [7], 20%; in the experiment on Rattus norvegicus [8] it was 14%. The Activity in [9] was 33%.

Regarding `COC(=O)C(C)Oc1ccc(C(=O)/C=C/c2c[nH]c3ccccc23)cc1` (stereo unspecified), the Activity with Rattus norvegicus [1] came to 14%; with Rattus norvegicus [5] it was 12%; with Rattus norvegicus [7], 13%; in the experiment with Rattus norvegicus [8], 6%.

For `CCOC(=O)C(CC)Oc1ccc(C(=O)/C=C/c2c(C)[nH]c3ccccc23)cc1` (stereo unspecified), the Activity in the experiment on Rattus norvegicus [1] is given as 22%; in the experiment with Rattus norvegicus [5] it was 22%; in the experiment on Rattus norvegicus [7], 20%; with Rattus norvegicus [8] it was 14%.

For the molecule `COC(=O)CCCOc1ccc(C(=O)/C=C/c2c(C)[nH]c3ccccc23)cc1`, the Activity came to 18% in the experiment on Rattus norvegicus [1], 16% in the experiment on Rattus norvegicus [5], 15% with Rattus norvegicus [7] and 9% in the experiment with Rattus norvegicus [8].
